Assay results taken from patent US20040214320A1, “Mammalian gamete and embryo culture media supplement and method of using same” (Vitrolife, Inc,, priority 2000, published 2004).
Marks after values point to notes of the source that are not given here.

Tests used:
Assay type in all cases: cell-based
CF1 mouse blastocysts = test: Blastocyst attachment and outgrowth in culture following cryopreservation
Protocol: The ability of the blastocysts to outgrow in culture following cryopreservation was also assessed. The outgrowth of both the ICM and TE was scored between 0-3 where 0 represented no outgrowth and 3 represented extensive outgrowth.

outbred mouse embryo = test: Outbred mouse embryo development in culture, fertilized eggs cultured 4 days (G1.2 48 h, then G2.2 48 h)
Protocol: Embryos were cultured at 37° C. in 6% CO2:5% O2:89% N2 in an embryo incubation volume of 10 embryos: 20 μl of medium. Embryos were cultured in medium G 1.2 for 48 h followed by 48 h of culture in medium G 2.2.
Initial experiments investigated replacing albumin purified from blood with HYN for outbred mouse embryo development in culture. Fertilized eggs were cultured for 4 days in one of 4 different concentrations of HYN. Embryos were cultured at 37° C. in 6% CO2:5% O2:89% N2 in an embryo incubation volume of 10 embryos: 20 μl of medium. Embryos were cultured in medium G1.2 for 48 h followed by 48 h of culture in medium G2.2. The negative control treatment was no protein.
Fertilized eggs were cultured for 4 days. Embryos were cultured at 37° C. in 6% CO2:5% O2:89% N2 in an embryo incubation volume of 10 embryos: 20 μl of medium. Embryos were cultured in medium G 1.2 for 48 h followed by 48 h of culture in medium G 2.2.
Embryos were cultured at 37° C. in 6% CO2:5% O2:89% N2 in an embryo incubation volume of 10 embryos: 20 μl of medium. Embryos were cultured in medium G1.2 for 48 h followed by 48 h of culture in medium G2.2.

cow embryos = test: Cow embryo development in culture, fertilized eggs cultured 6 to 7 days (G1.2 72 h, then G2.2 72 h); settings: Example 7, cow
Protocol: (§1) Fertilized eggs were cultured for 6 to 7 days. Embryos were cultured at 38.5° C. in 6% CO2:5% O2:89% N2 in 500 μl of medium. Embryos were cultured in medium G1.2 for 72 h followed by 72 h of culture in medium G2.2.
as §1
Fertilized eggs were cultured for 6 to 7 days. Embryos were cultured at 38.5° C. in 6% CO2:5% O2:89% N2 in 500 μl of medium. Embryos were cultured in medium G1.2 for 72 h, followed by 72 h of culture in medium G2.2. Blastocysts were either stained for cell numbers or frozen and subsequently thawed to assess survival.

mouse embryo = test: Mouse embryo development in culture, 48 h in G1.2, with or without citrate
Protocol: Embryos were cultured at 37° C. in 6% CO2:5% O2:89% N2 in an embryo incubation volume of 10 embryos: 20 μl of medium. Embryos were cultured in medium G1.2 for 48 h.

[1] = HYN 0.125 mg/ml, no protein, 4 days culture
[2] = HYN 0.5 mg/ml, no protein, 4 days culture
[3] = HYN 1 mg/ml, no protein, 4 days culture
[4] = treatment +/+ (citrate in first 48 h / further 48 h), medium with rHA and HYN
[5] = treatment +/− (citrate in first 48 h / further 48 h), medium with rHA and HYN
[6] = treatment −/+ (citrate in first 48 h / further 48 h), medium with rHA and HYN
[7] = citrate added to medium G1.2 with rHA and HYN

In the case of hyaluronan [HYN], the “development of the ICM (outgrowth) compared to human serum albumin” value (CF1 mouse blastocysts) was “increased”, the “% ICM/Total” value (outbred mouse embryo; [1]) was 26.5 ± 0.6^ac % and the Blastocyst (outbred mouse embryo; [1]) was 88.6^a. The “Cell Number” value (outbred mouse embryo; [1]) was 79.6 ± 1.9^bc, the Hatching (outbred mouse embryo; [1]) was 57.1b^c and the “ICM Number” value (outbred mouse embryo; [1]) was 21.2 ± 0.8^bc. The “TE Number” value (outbred mouse embryo; [1]) was 58.7 ± 1.5^bc, the “% ICM/Total” value (outbred mouse embryo; [2]) was 28.3 ± 1.1^bc % and the Blastocyst (outbred mouse embryo; [2]) was 100^a. For the same compound, the “Cell Number” value (outbred mouse embryo; [2]) was 64.2 ± 1.9^ac, the Hatching (outbred mouse embryo; [2]) was 50^b and the “ICM Number” value (outbred mouse embryo; [2]) was 18.0 ± 0.7^ac. For the same compound, the “TE Number” value (outbred mouse embryo; [2]) was 46.7 ± 2.0^a, the “% ICM/Total” value (outbred mouse embryo; [3]) was 26.4 ± 0.9^ac % and the Blastocyst (outbred mouse embryo; [3]) was 61.8^b. The “Cell Number” value (outbred mouse embryo; [3]) was 62.0 ± 2.7^ac, the Hatching (outbred mouse embryo; [3]) was 23.5^a and the “ICM Number” value (outbred mouse embryo; [3]) was 17.5 ± 0.8^ac. For the same compound, the “TE Number” value (outbred mouse embryo; [3]) was 49.1 ± 2.5^a, the mouse embryo development (outbred mouse embryo; concentrations from 0.125 to 0.5 mg/ml) was “stimulated” and the “Total Blastocyst Day 6” value (cow embryos; day 6) was 16.9^b. For the same compound, the “Total Blastocyst Day 7” value (cow embryos; day 7) was 30.4.

`O=C(O)CC(O)(CC(=O)O)C(=O)O` [citrate] was tested, and the embryo development (outbred mouse embryo; Example 6, citrate added to medium with rHA and HYN, 96 h) was “significantly increased”, the “% ICM/Total” value (outbred mouse embryo; [4]) was 30.4% and the “Cell Number” value (outbred mouse embryo; [4]) was 100.7. For the same compound, the “Hatching (% of Total)” value (outbred mouse embryo; [4]) was 18.2%, the “Morula/Blastocyst (%)” value (outbred mouse embryo; [4]) was 72.7% and the “TE Number” value (outbred mouse embryo; [4]) was 69.8. The “Total Blastocyst (%)” value (outbred mouse embryo; [4]) was 62.7%, the “% ICM/Total” value (outbred mouse embryo; [5]) was 30.7% and the “Cell Number” value (outbred mouse embryo; [5]) was 112.6. For the same compound, the “Hatching (% of Total)” value (outbred mouse embryo; [5]) was 16.8%, the “ICM Number” value (outbred mouse embryo; [5]) was 34.9 and the “Morula/Blastocyst (%)” value (outbred mouse embryo; [5]) was 71.3%. For the same compound, the “TE Number” value (outbred mouse embryo; [5]) was 77.7, the “Total Blastocyst (%)” value (outbred mouse embryo; [5]) was 67.3% and the “% ICM/Total” value (outbred mouse embryo; [6]) was 34.5%. For the same compound, the “Cell Number” value (outbred mouse embryo; [6]) was 94.8, the “Hatching (% of Total)” value (outbred mouse embryo; [6]) was 23.2% and the “ICM Number” value (outbred mouse embryo; [6]) was 33.4. The “Morula/Blastocyst (%)” value (outbred mouse embryo; [6]) was 68.5%, the “TE Number” value (outbred mouse embryo; [6]) was 61.44 and the “Total Blastocyst (%)” value (outbred mouse embryo; [6]) was 64.8%. The “% 8 cell” value (mouse embryo; [7]) was 81.1* %, the “% compacted” value (mouse embryo; [7]) was 12.2* % and the “Day 3 mean cell number” value (mouse embryo; [7]) was 7.21 ± 0.13. The embryo development (mouse embryo; citrate added to medium containing rHA and fermented HYN) was “significant increase”.
